What all share (assay): KINOMEscan (ScanMAX) kinase profiling
Format in all cases: binding

In assay [1] the target is T1, panel of 468 kinases (Homo sapiens, UniProt O94921).
T1 construct: purchased KINOMEscan (ScanMAX) service
As to conditions: PFTK1; 1 μM; read-out: % control.

The target of assay [2] is T2, panel of 468 kinases (Homo sapiens, UniProt P54762).
T2 construct: purchased KINOMEscan (ScanMAX) service
T2 sequence (P54762 18-984): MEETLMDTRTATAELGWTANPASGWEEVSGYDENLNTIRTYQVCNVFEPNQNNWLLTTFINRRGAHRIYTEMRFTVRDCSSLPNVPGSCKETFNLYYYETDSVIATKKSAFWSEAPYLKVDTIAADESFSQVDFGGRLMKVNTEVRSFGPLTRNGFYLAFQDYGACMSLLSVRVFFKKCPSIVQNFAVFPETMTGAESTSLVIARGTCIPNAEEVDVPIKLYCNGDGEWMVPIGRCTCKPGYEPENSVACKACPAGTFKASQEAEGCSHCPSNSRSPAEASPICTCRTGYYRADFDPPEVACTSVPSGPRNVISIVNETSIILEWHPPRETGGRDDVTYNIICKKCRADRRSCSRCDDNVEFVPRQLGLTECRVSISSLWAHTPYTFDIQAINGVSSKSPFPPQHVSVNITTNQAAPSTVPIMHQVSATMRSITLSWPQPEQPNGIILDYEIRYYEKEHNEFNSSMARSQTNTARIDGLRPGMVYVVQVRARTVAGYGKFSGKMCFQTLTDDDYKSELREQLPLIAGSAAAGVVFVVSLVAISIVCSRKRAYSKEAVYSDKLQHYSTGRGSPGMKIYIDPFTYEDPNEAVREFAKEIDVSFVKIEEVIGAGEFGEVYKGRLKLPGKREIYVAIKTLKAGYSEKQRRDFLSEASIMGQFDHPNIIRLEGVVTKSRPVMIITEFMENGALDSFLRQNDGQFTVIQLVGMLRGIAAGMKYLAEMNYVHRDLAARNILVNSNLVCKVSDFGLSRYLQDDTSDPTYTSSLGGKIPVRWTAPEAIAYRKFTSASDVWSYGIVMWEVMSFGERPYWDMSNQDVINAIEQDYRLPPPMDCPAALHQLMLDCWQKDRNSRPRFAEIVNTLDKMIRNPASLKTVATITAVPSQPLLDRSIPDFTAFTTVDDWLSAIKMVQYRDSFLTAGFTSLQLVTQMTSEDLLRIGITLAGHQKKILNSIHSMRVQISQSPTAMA
As to conditions: EPHB1; 1 μM; read-out: % control.

Assay [3] has as its target T3, panel of 468 kinases (Homo sapiens, UniProt P36888, N841I).
T3 construct: purchased KINOMEscan (ScanMAX) service
T3 sequence (P36888 27-993 N841I): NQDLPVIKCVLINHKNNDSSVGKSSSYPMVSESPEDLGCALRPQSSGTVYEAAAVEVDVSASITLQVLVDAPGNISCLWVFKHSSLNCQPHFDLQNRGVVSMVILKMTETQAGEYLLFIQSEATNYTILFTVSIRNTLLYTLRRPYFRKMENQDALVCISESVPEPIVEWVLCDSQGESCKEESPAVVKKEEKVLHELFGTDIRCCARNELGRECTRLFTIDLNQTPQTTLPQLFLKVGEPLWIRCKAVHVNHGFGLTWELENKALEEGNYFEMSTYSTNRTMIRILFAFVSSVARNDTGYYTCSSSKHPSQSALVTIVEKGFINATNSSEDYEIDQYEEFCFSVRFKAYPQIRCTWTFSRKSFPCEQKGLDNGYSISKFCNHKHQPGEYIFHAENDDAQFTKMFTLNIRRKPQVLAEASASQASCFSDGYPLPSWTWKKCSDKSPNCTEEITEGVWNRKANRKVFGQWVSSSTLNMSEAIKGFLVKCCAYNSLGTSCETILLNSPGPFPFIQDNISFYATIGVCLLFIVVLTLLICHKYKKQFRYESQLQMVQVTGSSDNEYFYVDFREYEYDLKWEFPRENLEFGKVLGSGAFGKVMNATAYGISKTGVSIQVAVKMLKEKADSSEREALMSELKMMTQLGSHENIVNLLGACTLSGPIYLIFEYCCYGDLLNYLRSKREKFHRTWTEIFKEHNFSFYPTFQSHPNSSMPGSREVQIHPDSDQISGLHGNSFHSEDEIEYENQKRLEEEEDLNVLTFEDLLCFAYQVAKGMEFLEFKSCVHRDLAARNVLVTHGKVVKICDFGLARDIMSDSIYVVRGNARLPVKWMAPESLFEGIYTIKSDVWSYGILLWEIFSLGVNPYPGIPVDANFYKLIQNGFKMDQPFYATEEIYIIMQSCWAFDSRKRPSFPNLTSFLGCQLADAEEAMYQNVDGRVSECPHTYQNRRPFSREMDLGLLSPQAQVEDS
As to conditions: FLT3(N841I); 1 μM; read-out: % control.

In assay [4] the target is T4, panel of 468 kinases (Homo sapiens, UniProt P16234).
T4 construct: purchased KINOMEscan (ScanMAX) service
As to conditions: PDGFRA; 1 μM; read-out: % control.

Assay [5] has as its target T5, panel of 468 kinases (Homo sapiens, UniProt Q9UBE8).
T5 construct: purchased KINOMEscan (ScanMAX) service
T5 sequence (Q9UBE8 1-527): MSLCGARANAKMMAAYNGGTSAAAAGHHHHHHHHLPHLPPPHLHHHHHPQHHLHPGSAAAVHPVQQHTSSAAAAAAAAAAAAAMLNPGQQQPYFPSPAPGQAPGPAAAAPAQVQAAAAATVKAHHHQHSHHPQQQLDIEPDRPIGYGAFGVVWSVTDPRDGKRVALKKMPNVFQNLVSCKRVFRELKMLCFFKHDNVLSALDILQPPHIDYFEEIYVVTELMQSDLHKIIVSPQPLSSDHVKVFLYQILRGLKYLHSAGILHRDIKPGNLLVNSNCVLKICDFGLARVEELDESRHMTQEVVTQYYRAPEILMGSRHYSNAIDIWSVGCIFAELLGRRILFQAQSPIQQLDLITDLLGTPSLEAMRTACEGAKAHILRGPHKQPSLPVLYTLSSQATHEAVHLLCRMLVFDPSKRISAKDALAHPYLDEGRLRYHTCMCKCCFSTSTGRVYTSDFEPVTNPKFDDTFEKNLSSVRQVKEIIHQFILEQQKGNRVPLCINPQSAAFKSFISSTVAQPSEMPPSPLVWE
As to conditions: NLK; 1 μM; read-out: % control.

From patent publication US12479847B2 (DANA-FARBER CANCER INSTITUTE, INC., priority 2019, dated 2025) come the findings set out here.

T4 sequence (P16234 24-1089): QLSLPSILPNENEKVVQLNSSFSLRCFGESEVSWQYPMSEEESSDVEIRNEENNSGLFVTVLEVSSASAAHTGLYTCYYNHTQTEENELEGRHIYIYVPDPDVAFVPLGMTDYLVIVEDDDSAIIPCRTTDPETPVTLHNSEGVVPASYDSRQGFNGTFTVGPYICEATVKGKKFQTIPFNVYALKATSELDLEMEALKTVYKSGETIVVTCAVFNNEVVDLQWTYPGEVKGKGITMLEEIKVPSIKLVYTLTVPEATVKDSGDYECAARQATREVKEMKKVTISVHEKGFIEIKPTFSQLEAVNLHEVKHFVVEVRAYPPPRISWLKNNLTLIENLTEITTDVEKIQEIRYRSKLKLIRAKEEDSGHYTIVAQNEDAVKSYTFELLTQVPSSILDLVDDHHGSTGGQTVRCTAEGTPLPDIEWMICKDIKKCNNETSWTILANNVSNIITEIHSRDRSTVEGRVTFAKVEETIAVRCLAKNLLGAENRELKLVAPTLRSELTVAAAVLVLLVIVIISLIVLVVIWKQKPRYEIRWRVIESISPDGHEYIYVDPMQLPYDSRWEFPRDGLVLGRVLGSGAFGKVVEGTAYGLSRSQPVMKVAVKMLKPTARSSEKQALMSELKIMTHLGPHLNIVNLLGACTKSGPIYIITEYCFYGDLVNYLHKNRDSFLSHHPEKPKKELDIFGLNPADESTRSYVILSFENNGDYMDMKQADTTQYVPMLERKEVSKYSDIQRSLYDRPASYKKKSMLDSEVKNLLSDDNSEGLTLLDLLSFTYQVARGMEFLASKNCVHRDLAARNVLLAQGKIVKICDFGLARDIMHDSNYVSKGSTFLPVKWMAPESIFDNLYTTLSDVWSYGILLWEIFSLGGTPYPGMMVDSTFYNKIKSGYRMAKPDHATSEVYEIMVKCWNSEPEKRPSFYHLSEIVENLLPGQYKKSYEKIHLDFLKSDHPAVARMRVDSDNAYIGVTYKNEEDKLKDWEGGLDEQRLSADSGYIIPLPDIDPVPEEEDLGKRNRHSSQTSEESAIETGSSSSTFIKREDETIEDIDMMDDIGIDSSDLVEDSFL
T1 sequence (O94921 whole entry): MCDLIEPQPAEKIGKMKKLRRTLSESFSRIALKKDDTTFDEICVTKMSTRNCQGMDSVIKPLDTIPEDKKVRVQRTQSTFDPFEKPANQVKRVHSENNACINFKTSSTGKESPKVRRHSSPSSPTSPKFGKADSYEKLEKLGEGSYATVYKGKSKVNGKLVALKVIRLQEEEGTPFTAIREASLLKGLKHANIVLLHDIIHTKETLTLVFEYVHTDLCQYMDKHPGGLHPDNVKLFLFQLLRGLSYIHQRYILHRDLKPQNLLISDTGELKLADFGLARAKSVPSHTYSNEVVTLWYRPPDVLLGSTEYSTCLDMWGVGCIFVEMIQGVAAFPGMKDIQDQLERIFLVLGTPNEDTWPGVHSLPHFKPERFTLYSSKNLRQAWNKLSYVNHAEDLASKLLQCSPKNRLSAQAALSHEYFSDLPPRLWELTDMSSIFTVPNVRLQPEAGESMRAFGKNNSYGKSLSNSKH

`CNc1nc(Nc2ccc(C(=O)N3CCC(N4CCOCC4)CC3)c3c2OCO3)nc2[nH]cc(Cl)c12` [Compound 75, (7-((5-chloro-4-(methylamino)-7H-pyrrolo[2,3-d]pyrimidin-2-yl)amino)benzo[d][1,3]dioxol-4-yl)(4-morpholinopiperidin-1-yl)methanone]: the remaining binding at 1 µM at panel of 468 kinases [1] turned out to be 91%; on panel of 468 kinases [2], 100%; on panel of 468 kinases [3], 65%; on panel of 468 kinases [4], 67%; at panel of 468 kinases [5], 100%.
Take `CNc1nc(Nc2ccc(P3(=O)CCN(C4CCOCC4)CC3)cc2OC)nc2[nH]cc(Cl)c12` [Compound 77, 4-(4-((5-chloro-4-(methylamino)-7H-pyrrolo[2,3-d]pyrimidin-2-yl)amino)-3-methoxyphenyl)-1-(tetrahydro-2H-pyran-4-yl)-1,4-azaphosphinane 4-oxide]: the remaining binding at 1 µM is 100% at panel of 468 kinases [1]; 100% at panel of 468 kinases [2]; 99% on panel of 468 kinases [3]; 69% on panel of 468 kinases [4]; 100% at panel of 468 kinases [5].
For `CNc1nc(Nc2ccc(S(=O)(=O)N3CCC(N4CCOCC4)CC3)cc2OC)nc2[nH]cc(Cl)c12` [Compound 12, 5-chloro-N2-(2-methoxy-4-((4-morpholinopiperidin-1-yl)sulfonyl)phenyl)-N4-methyl-7H-pyrrolo[2,3-d]pyrimidine-2,4-diamine], the remaining binding at 1 µM on panel of 468 kinases [1] stood at 75%; at panel of 468 kinases [2] it was 88%; at panel of 468 kinases [3], 85%; at panel of 468 kinases [4] it was 77%; at panel of 468 kinases [5] it was 100%.
